Test [1] concerns MOLM13. Kind of test: Cell growth inhibition, CellTiter-Glo Luminescent Cell Viability Assay, MOLM13. Particulars: MOLM13 cells, 4 days. Type of test: cell-based. As to the method:
(§1) Cell growth inhibitory activity of representative Compounds of the Disclosure was determined using the CellTiter-Glo® Luminescent Cell Viability Assay. Cells were seeded in 384-well white opaque cell culture plates at a density of 2,000 cells/well with serially diluted compounds and incubated at 37° C. in an atmosphere of 95% air and 5% CO2 for 4 days. Cell viability was determined using the CellTiter-Glo® Luminescent Cell Viability Assay Kit (Promega, Madison, Wis.) according to the manufacture's instruction. Briefly, a volume of CellTiter-Glo® Reagent equal to the volume of cell culture medium was added to each well, and then the plates were incubated at room temperature for 10-20 minutes. The luminescent signal was measured using a Tecan Infinite M1000 multimode microplate reader (Tecan, Morrisville, N.C.). The half maximal inhibitory concentration (IC50) in Table 3 was calculated using the GraphPad Prism 5 software (GraphPad Software, La Jolla, Calif.).

In test [2] the test system is MDA-MB-231. Kind of test: Cell growth inhibition, CellTiter-Glo Luminescent Cell Viability Assay, MDA-MB-231. Particulars: MDA-MB-231 cells, 4 days. It counts as cell-based. How it is done:
as §1

With `Cc1c(C#Cc2cnn(CCCC(=O)OCCCN3CCC(Nc4cccc5c4CN(C4CCC(=O)NC4=O)C5=O)CC3)c2)sc2c1C(c1ccc(Cl)cc1)=N[C@@H](CC(=O)N1CCN(C)CC1)c1nnc(C)n1-2` (stereo partly drawn) [Cpd. No. 1, 3-(4-((2-(2,6-dioxopiperidin-3-yl)-1-oxoisoindolin-4-yl)amino)piperidin-1-yl)propyl 4-(4-(((S)-4-(4-chlorophenyl)-3,9-dimethyl-6-(2-(4-methylpiperazin-1-yl)-2-oxoethyl)-6H-thieno[3,2-f][1,2,4]triazolo[4,3-a][1,4]diazepin-2-yl)ethynyl)-1H-pyrazol-1-yl)butanoate], the half-inhibitory concentration (IC50) in test [1] (Homo sapiens, MOLM-13, 96 h) is 1.1 nM; in test [2] (Homo sapiens, MDA-MB-231, 96 h) it was 2.5 nM.

`Cc1c(C#Cc2cnn(CC(=O)OCC#Cc3cccc4c3CN(C3CCC(=O)NC3=O)C4=O)c2)sc2c1C(c1ccc(Cl)cc1)=N[C@@H](C)c1nnc(C)n1-2` (stereo partly drawn) [Cpd. No. 4, 3-(2-(2,6-dioxopiperidin-3-yl)-1-oxoisoindolin-4-yl)prop-2-yn-1-yl 2-(4-(((S)-4-(4-chlorophenyl)-3,6,9-trimethyl-6H-thieno[3,2-f][1,2,4]triazolo[4,3-a][1,4]diazepin-2-yl)ethynyl)-1H-pyrazol-1-yl)acetate]: the 50% inhibitory concentration (IC50) in test [1] is 17.3 nM; in test [2] it was 276 nM.

In test [1] (Homo sapiens, MOLM-13, 96 h), `Cc1nnc2n1-c1sc(C#Cc3cnn(CCCC(=O)OCCCNc4cccc5c4CN(C4CCC(=O)NC4=O)C5=O)c3)c(Cc3ccccc3)c1COC2` (stereo not shown) [Cpd. No. 18, 3-((2-(2,6-dioxopiperidin-3-yl)-1-oxoisoindolin-4-yl)amino)propyl 4-(4-((3-benzyl-9-methyl-4H,6H-thieno[2,3-e][1,2,4]triazolo[3,4-c][1,4]oxazepin-2-yl)ethynyl)-1H-pyrazol-1-yl)butanoate] showed an IC50 of 7.3 nM.

As to `Cc1c(C#Cc2cnn(CCCC(=O)OCCCOc3cccc4c3CN(C3CCC(=O)NC3=O)C4=O)c2)sc2c1C(c1ccc(Cl)cc1)=N[C@@H](CC(=O)N1CCN(C)CC1)c1nnc(C)n1-2` (stereo partly drawn) [compound 9, 3-((2-(2,6-dioxopiperidin-3-yl)-1-oxoisoindolin-4-yl)oxy)propyl 4-(4-(((S)-4-(4-chlorophenyl)-3,9-dimethyl-6-(2-(4-methylpiperazin-1-yl)-2-oxoethyl)-6H-thieno[3,2-f][1,2,4]triazolo[4,3-a][1,4]diazepin-2-yl)ethynyl)-1H-pyrazol-1-yl)butanoate], the IC50 in test [1] (Homo sapiens, MOLM-13, 96 h) came to 0.2 nM. This IC50 is about 36-fold lower than that of the molecule before.

In test [1] (Homo sapiens, MOLM-13, 96 h), `Cc1c(C#Cc2cnn(CCCC(=O)OCCOCCOCCOc3cccc4c3CN(C3CCC(=O)NC3=O)C4=O)c2)sc2c1C(c1ccc(Cl)cc1)=N[C@@H](CC(=O)N1CCN(C)CC1)c1nnc(C)n1-2` (stereo partly drawn) [compound 10, 2-(2-(2-((2-(2,6-dioxopiperidin-3-yl)-1-oxoisoindolin-4-yl)oxy)ethoxy)ethoxy)ethyl 4-(4-(((S)-4-(4-chlorophenyl)-3,9-dimethyl-6-(2-(4-methylpiperazin-1-yl)-2-oxoethyl)-6H-thieno[3,2-f][1,2,4]triazolo[4,3-a][1,4]diazepin-2-yl)ethynyl)-1H-pyrazol-1-yl)butanoate] yielded an IC50 of 4 nM.

As for `Cc1c(C#Cc2cnn(CCCC(=O)OCCOCCN3CCC(Nc4cccc5c4CN(C4CCC(=O)NC4=O)C5=O)CC3)c2)sc2c1C(c1ccc(Cl)cc1)=N[C@@H](CC(=O)N1CCN(C)CC1)c1nnc(C)n1-2` (stereo partly drawn) [compound 13, 2-(2-(4-((2-(2,6-dioxopiperidin-3-yl)-1-oxoisoindolin-4-yl)amino)piperidin-1-yl)ethoxy)ethyl 4-(4-(((S)-4-(4-chlorophenyl)-3,9-dimethyl-6-(2-(4-methylpiperazin-1-yl)-2-oxoethyl)-6H-thieno[3,2-f][1,2,4]triazolo[4,3-a][1,4]diazepin-2-yl)ethynyl)-1H-pyrazol-1-yl)butanoate], half-maximal inhibition in test [2] (Homo sapiens, MDA-MB-231, 96 h) (IC50) required 12.2 nM.

In test [2] (Homo sapiens, MDA-MB-231, 96 h), `Cc1c(C#Cc2cnn(CCCC(=O)OCCOCCOCCN3CCC(Nc4cccc5c4CN(C4CCC(=O)NC4=O)C5=O)CC3)c2)sc2c1C(c1ccc(Cl)cc1)=N[C@@H](CC(=O)N1CCN(C)CC1)c1nnc(C)n1-2` (stereo partly drawn) [compound 14, 2-(2-(2-(4-((2-(2,6-dioxopiperidin-3-yl)-1-oxoisoindolin-4-yl)amino)piperidin-1-yl)ethoxy)ethoxy)ethyl 4-(4-(((S)-4-(4-chlorophenyl)-3,9-dimethyl-6-(2-(4-methylpiperazin-1-yl)-2-oxoethyl)-6H-thieno[3,2-f][1,2,4]triazolo[4,3-a][1,4]diazepin-2-yl)ethynyl)-1H-pyrazol-1-yl)butanoate] came in with an IC50 of 20.7 nM.

For the molecule `Cc1nnc2n1-c1sc(C#Cc3cnn(CCCOC(=O)CCCCc4cccc5c4CN(C4CCC(=O)NC4=O)C5=O)c3)c(Cc3ccccc3)c1COC2` (stereo not shown) [compound 19, 3-(4-((3-benzyl-9-methyl-4H,6H-thieno[2,3-e][1,2,4]triazolo[3,4-c][1,4]oxazepin-2-yl)ethynyl)-1H-pyrazol-1-yl)propyl 5-(2-(2,6-dioxopiperidin-3-yl)-1-oxoisoindolin-4-yl)pentanoate], inhibition in test [1] (Homo sapiens, MOLM-13, 96 h) was half-maximal at 7.3 nM (IC50). This lies in the single-digit nanomolar range.

`Cc1nnc2n1-c1sc(C#Cc3cnn(CCCOC(=O)CCCc4cccc5c4CN(C4CCC(=O)NC4=O)C5=O)c3)c(Cc3ccccc3)c1COC2` (stereo not shown) [compound 20, 3-(4-((3-benzyl-9-methyl-4H,6H-thieno[2,3-e][1,2,4]triazolo[3,4-c][1,4]oxazepin-2-yl)ethynyl)-1H-pyrazol-1-yl)propyl 4-(2-(2,6-dioxopiperidin-3-yl)-1-oxoisoindolin-4-yl)butanoate]: in test [1] (Homo sapiens, MOLM-13, 96 h), half-maximal inhibition (IC50) was put at 22.6 nM.

In test [1] (Homo sapiens, MOLM-13, 96 h), `Cc1nnc2n1-c1sc(C#Cc3cnn(CCCC(=O)OCCCN4CCN(c5cccc6c5C(=O)N(C5CCC(=O)NC5=O)C6=O)CC4)c3)c(Cc3ccccc3)c1COC2` (stereo not shown) [compound 24, 3-(4-(2-(2,6-dioxopiperidin-3-yl)-1,3-dioxoisoindolin-4-yl)piperazin-1-yl)propyl 4-(4-((3-benzyl-9-methyl-4H,6H-thieno[2,3-e][1,2,4]triazolo[3,4-c][1,4]oxazepin-2-yl)ethynyl)-1H-pyrazol-1-yl)butanoate] showed an IC50 of 17.6 nM.

In test [2] (Homo sapiens, MDA-MB-231, 96 h), `Cc1nnc2n1-c1sc(C#Cc3cnn(CCCC(=O)OCCOCCN4CCC(Nc5cccc6c5CN(C5CCC(=O)NC5=O)C6=O)CC4)c3)c(Cc3ccccc3)c1COC2` (stereo not shown) [compound 26, 2-(2-(4-((2-(2,6-dioxopiperidin-3-yl)-1-oxoisoindolin-4-yl)amino)piperidin-1-yl)ethoxy)ethyl 4-(4-((3-benzyl-9-methyl-4H,6H-thieno[2,3-e][1,2,4]triazolo[3,4-c][1,4]oxazepin-2-yl)ethynyl)-1H-pyrazol-1-yl)butanoate] gave an IC50 of 24.1 nM.

`Cc1nnc2n1-c1sc(C#Cc3cnn(CCCC(=O)OCCOCCOCCN4CCC(Nc5cccc6c5CN(C5CCC(=O)NC5=O)C6=O)CC4)c3)c(Cc3ccccc3)c1COC2` (stereo not shown) [compound 27, 2-(2-(2-(4-((2-(2,6-dioxopiperidin-3-yl)-1-oxoisoindolin-4-yl)amino)piperidin-1-yl)ethoxy)ethoxy)ethyl 4-(4-((3-benzyl-9-methyl-4H,6H-thieno[2,3-e][1,2,4]triazolo[3,4-c][1,4]oxazepin-2-yl)ethynyl)-1H-pyrazol-1-yl)butanoate] returned an IC50 in test [2] (Homo sapiens, MDA-MB-231, 96 h) of 23.3 nM.

The molecule `Cc1nnc2n1-c1sc(C#Cc3cnn(CCCC(=O)OCCCCc4cccc5c4CN(C4CCC(=O)NC4=O)C5=O)c3)c(Cc3ccccc3)c1COC2` (stereo not shown) [compound 35, 4-(2-(2,6-dioxopiperidin-3-yl)-1-oxoisoindolin-4-yl)butyl 4-(4-((3-benzyl-9-methyl-4H,6H-thieno[2,3-e][1,2,4]triazolo[3,4-c][1,4]oxazepin-2-yl)ethynyl)-1H-pyrazol-1-yl)butanoate] registered an IC50 in test [1] (Homo sapiens, MOLM-13, 96 h) of 4.9 nM.

`Cc1nnc2n1-c1sc(C#Cc3cnn(CCCC(=O)OCCCc4cccc5c4CN(C4CCC(=O)NC4=O)C5=O)c3)c(Cc3ccccc3)c1COC2` (stereo not shown) [compound 36, 3-(2-(2,6-dioxopiperidin-3-yl)-1-oxoisoindolin-4-yl)propyl 4-(4-((3-benzyl-9-methyl-4H,6H-thieno[2,3-e][1,2,4]triazolo[3,4-c][1,4]oxazepin-2-yl)ethynyl)-1H-pyrazol-1-yl)butanoate] returned an IC50 in test [1] (Homo sapiens, MOLM-13, 96 h) of 4.6 nM.

In test [1] (Homo sapiens, MOLM-13, 96 h), `Cc1nnc2n1-c1sc(C#Cc3cnn(CC(=O)OCCCOc4cccc5c4CN(C4CCC(=O)NC4=O)C5=O)c3)c(Cc3ccccc3)c1COC2` (stereo not shown) [compound 37, 3-((2-(2,6-dioxopiperidin-3-yl)-1-oxoisoindolin-4-yl)oxy)propyl 2-(4-((3-benzyl-9-methyl-4H,6H-thieno[2,3-e][1,2,4]triazolo[3,4-c][1,4]oxazepin-2-yl)ethynyl)-1H-pyrazol-1-yl)acetate] gave an IC50 of 9.1 nM.

In turn, `Cc1nnc2n1-c1sc(C#Cc3cnn(CC(=O)OCC#Cc4cccc5c4CN(C4CCC(=O)NC4=O)C5=O)c3)c(Cc3ccccc3)c1COC2` (stereo not shown) [compound 39, 3-(2-(2,6-dioxopiperidin-3-yl)-1-oxoisoindolin-4-yl)prop-2-yn-1-yl 2-(4-((3-benzyl-9-methyl-4H,6H-thieno[2,3-e][1,2,4]triazolo[3,4-c][1,4]oxazepin-2-yl)ethynyl)-1H-pyrazol-1-yl)acetate] showed an IC50 in test [2] (Homo sapiens, MDA-MB-231, 96 h) above 100 nM.

In the case of `Cc1nnc2n1-c1sc(C#Cc3cnn(CC(=O)OCCC#Cc4cccc5c4CN(C4CCC(=O)NC4=O)C5=O)c3)c(Cc3ccccc3)c1COC2` (stereo not shown) [compound 40, 4-(2-(2,6-dioxopiperidin-3-yl)-1-oxoisoindolin-4-yl)but-3-yn-1-yl 2-(4-((3-benzyl-9-methyl-4H,6H-thieno[2,3-e][1,2,4]triazolo[3,4-c][1,4]oxazepin-2-yl)ethynyl)-1H-pyrazol-1-yl)acetate], half-maximal inhibition in test [2] (Homo sapiens, MDA-MB-231, 96 h) (IC50) was put at 24.3 nM.

For the origin of these results see US11267822B2, “BET bromodomain protein degraders with cleavable linkers” (THE REGENTS OF THE UNIVERSITY OF MICHIGAN, priority 2017, dated 2022).
